Earlier results as cited in patent US20220257548A1, “ORAL COMBINATION DRUG FORMULATION COMPRISING A NON-STEROIDAL ANTI-INFLAMMATORY DRUG AND A COMPLEMENTARY LOW DOSE OF TRANEXAMIC ACID FOR THE TREATMENT OF MENSTRUAL PAIN ACCOMPANIED WITH EXCESSIVE MENSTRUAL BLOOD LOSS” (ARSTAT, INC, priority 2011, published 2022).
Like-named read-outs stand apart in the source and are kept apart here.

Columns and labels:
[1] = 6 g/day
[2] = tested on: menstrual blood loss (MBL) in women with menorrhagia; settings: for mean percent change in MBL: Lysteda clinical study
[3] = tested on: menstrual blood loss (MBL) in women

Compound: NC[C@H]1CC[C@H](C(=O)O)CC1 [tranexamic acid]
- risk of gastrointestinal adverse events [1]: increased
- limitations on social, leisure and physical activities ([2]; 3900 mg/day regimen): significantly reduces
- difference versus placebo in reduction of large stains, small and large clots and changes in serum ferritin levels ([2]; Lysteda NDA medical review): no statistically significant differences
- subjects returned to normal MBL after treatment (mean on-treatment MBL of less than 80 mL) ([2]; Lysteda NDA medical review): 44%
- mean percent change in MBL ([2]; oral tranexamic acid 1950 mg/day regimen): approximately 25%
- mean percent change in MBL ([2]; oral tranexamic acid 3900 mg/day dose): 39%

Compound: CC(C)Cc1ccc(C(C)C(=O)O)cc1 (centres unmarked) [ibuprofen]
- reduction in MBL ([3]; 200 mg administered three times daily): 16%
- reduction in MBL ([3]; 400 mg administered four times daily): 32%

Compound: Cc1cccc(Nc2ccccc2C(=O)O)c1C [mefenamic acid]
- reduction in MBL ([3]; 500 mg three times daily during the menstrual period, women clinically diagnosed with menorrhagia (baseline MBL>80 mL)): 30%
- reduction in MBL ([3]; 500 mg three times daily during the menstrual period, women with no clinical diagnosis of menorrhagia (baseline MBL<80 mL)): 19%

Compound: O=C(O)Cc1ccccc1Nc1c(Cl)cccc1Cl [diclofenac sodium]
- reduction in MBL ([3]; 50 mg four times daily on Day 1 and three times on the following four days of the menstrual period): 24%
